According to ChEMBL document CHEMBL5705887, “Distinct concentration-dependent effects of the polo-like kinase 1-specific inhibitor GSK461364A, including differential effect on apoptosis” (Cancer Res, 2009):
Active and inactive are the calls of the source. No cut-off for these calls is given here.

Experiments:
SK-OV-3 = assay: Antiproliferative activity against human SK-OV-3 cells assessed as viable cell signal at maximum growth inhibition incubated for 72 hrs by celltiter-glo assay relative to control; assay type: functional
COLO 205 [1] = assay: Antitumor activity against human COLO 205 cells xenografted in Nude mouse assessed as increase in pIk1 level at 50 mg/kg, ip measured at 24 hrs by immunohistochemistry analysis; assay type: functional, organism-based
[2] = biological target: Serine/threonine-protein kinase 10 (Homo sapiens) (UniProt O94804); assay: Inhibition of N-terminal his6-tagged recombinant human LOK (1 to 348 residues) expressed in baculovirus Sf21 cells at 10 uM relative to control
SCLC = assay: Antiproliferative activity against human SCLC cells assessed as growth inhibition incubated for 72 hrs by celltiter-glo assay; assay type: functional
HT-29 = assay: Antiproliferative activity against human HT-29 cells assessed as growth inhibition incubated for 72 hrs by celltiter-glo assay; assay type: functional
SW480 = assay: Antiproliferative activity against human SW480 cells assessed as growth inhibition incubated for 72 hrs by celltiter-glo assay; assay type: functional
HeLa = assay: Antiproliferative activity against human HeLa cells assessed as growth inhibition incubated for 72 hrs by celltiter-glo assay; assay type: functional
COLO 205 [3] = assay: Antiproliferative activity against human COLO 205 cells assessed as viable cell signal at maximum growth inhibition incubated for 72 hrs by celltiter-glo assay relative to control; assay type: functional
COLO 205 [4] = assay: Antitumor activity against human COLO 205 cells xenografted in Nude mouse assessed as disorganized condense chromatin at 50 to 100 mg/kg, ip measured at 24 to 48 hrs by H and E staining based analysis; assay type: functional, organism-based; conditions: dose 50-100 mg/kg, time 24-48 hrs
HN5 = assay: Antiproliferative activity against human HN5 cells assessed as growth inhibition incubated for 72 hrs by celltiter-glo assay; assay type: functional
A498 = assay: Antiproliferative activity against human A498 cells assessed as viable cell signal at maximum growth inhibition incubated for 72 hrs by celltiter-glo assay relative to control; assay type: functional
T47D = assay: Antiproliferative activity against human T47D cells assessed as of viable cell signal at minimum maximum cell growth incubated for 72 hrs by celltiter-glo assay relative to control; assay type: functional
Panc 02.03 [5] = assay: Antiproliferative activity against human Panc 02.03 cells assessed as growth inhibition incubated for 72 hrs by celltiter-glo assay; assay type: functional
[6] = test system: Fibroblast growth factor receptor 1 (Homo sapiens), P11362 [V561M]; assay: Inhibition of N-terminal his6-tagged recombinant human FGFR1 V561M mutant (456 to 765 residues) at 10 uM relative to control
BT-474 = assay: Antiproliferative activity against human BT-474 cells assessed as viable cell signal at maximum growth inhibition incubated for 72 hrs by celltiter-glo assay relative to control; assay type: functional
OVCAR-4 = assay: Antiproliferative activity against human OVCAR-4 cells assessed as growth inhibition incubated for 72 hrs by celltiter-glo assay; assay type: functional
MDA-MB-231 = assay: Antiproliferative activity against human MDA-MB-231 cells assessed as growth inhibition incubated for 72 hrs by celltiter-glo assay; assay type: functional
HL-60 = assay: Antiproliferative activity against human HL-60 cells assessed as of viable cell signal at minimum maximum cell growth incubated for 72 hrs by celltiter-glo assay relative to control; assay type: functional
Panc 02.03 [7] = assay: Antiproliferative activity against human Panc 02.03 cells assessed as viable cell signal at maximum growth inhibition incubated for 72 hrs by celltiter-glo assay relative to control; assay type: functional
HCC1954 = assay: Antiproliferative activity against human HCC1954 cells assessed as growth inhibition incubated for 72 hrs by celltiter-glo assay; assay type: functional
SK-MEL-2 = assay: Antiproliferative activity against human SK-MEL-2 cells assessed as of viable cell signal at minimum maximum cell growth incubated for 72 hrs by celltiter-glo assay relative to control; assay type: functional
RKO = assay: Antiproliferative activity against human RKO cells assessed as of viable cell signal at minimum maximum cell growth incubated for 72 hrs by celltiter-glo assay relative to control; assay type: functional
[8] = biological target: Vascular endothelial growth factor receptor 3 (Homo sapiens) (UniProt P35916); assay: Inhibition of N-terminal GST-tagged recombinant human FLT4 (800 to end residues) at 10 uM relative to control
OVCAR-8 = assay: Antiproliferative activity against human OVCAR-8 cells assessed as growth inhibition incubated for 72 hrs by celltiter-glo assay; assay type: functional
MIA PaCa-2 = assay: Antiproliferative activity against human MIA PaCa-2 cells assessed as of viable cell signal at minimum maximum cell growth incubated for 72 hrs by celltiter-glo assay relative to control; assay type: functional
HCC1937 = assay: Antiproliferative activity against human HCC1937 cells assessed as viable cell signal at maximum growth inhibition incubated for 72 hrs by celltiter-glo assay relative to control; assay type: functional
OVCAR-3 = assay: Antiproliferative activity against human OVCAR-3 cells assessed as growth inhibition incubated for 72 hrs by celltiter-glo assay; assay type: functional
NCI-H1155 = assay: Antiproliferative activity against human NCI-H1155 cells assessed as viable cell signal at maximum growth inhibition incubated for 72 hrs by celltiter-glo assay relative to control; assay type: functional
SK-BR-3 [9] = assay: Antiproliferative activity against human SK-BR-3 cells assessed as growth inhibition incubated for 72 hrs by celltiter-glo assay; assay type: functional
COLO 205 [10] = assay: Antiproliferative activity against human COLO 205 cells assessed as growth inhibition incubated for 72 hrs by celltiter-glo assay; assay type: functional
ZR-75-1 = assay: Antiproliferative activity against human ZR-75-1 cells assessed as growth inhibition at > 250 nmol/L incubated for 72 hrs by celltiter-glo assay; assay type: functional, cell-based
T-24 = assay: Antiproliferative activity against human T24 cells assessed as growth inhibition incubated for 72 hrs by celltiter-glo assay; assay type: functional
Hep 3B2 = assay: Antiproliferative activity against human Hep3B cells assessed as of viable cell signal at minimum maximum cell growth incubated for 72 hrs by celltiter-glo assay relative to control; assay type: functional
BXPC-3 = assay: Antiproliferative activity against human BXPC-3 cells assessed as of viable cell signal at minimum maximum cell growth incubated for 72 hrs by celltiter-glo assay relative to control; assay type: functional
PANC-08-13 [11] = assay: Antiproliferative activity against human PANC-08-13 cells assessed as viable cell signal at maximum growth inhibition incubated for 72 hrs by celltiter-glo assay relative to control; assay type: functional
A549 = assay: Induction of mitotic arrest in human A549 cells assessed as disordered spindle formation at 313 nmol/L incubated for 16 hrs by alpha-tubulin/DAPI staining based confocal microscopic analysis; assay type: functional, cell-based
LNCaP = assay: Antiproliferative activity against human LNCaP cells assessed as growth inhibition incubated for 72 hrs by celltiter-glo assay; assay type: functional
MCF7 = assay: Antiproliferative activity against human MCF7 cells assessed as of viable cell signal at minimum maximum cell growth incubated for 72 hrs by celltiter-glo assay relative to control; assay type: functional
PANC-08-13 [12] = assay: Antiproliferative activity against human PANC-08-13 cells assessed as growth inhibition incubated for 72 hrs by celltiter-glo assay; assay type: functional
MDA-MB-453 = assay: Antiproliferative activity against human MDA-MB-453 cells assessed as growth inhibition incubated for 72 hrs by celltiter-glo assay; assay type: functional
SK-BR-3 [13] = assay: Antiproliferative activity against human SK-BR-3 cells assessed as viable cell signal at maximum growth inhibition incubated for 72 hrs by celltiter-glo assay relative to control; assay type: functional

Chain of Serine/threonine-protein kinase 10 (Homo sapiens) (O94804 whole entry, looked up, the tested form may be a part): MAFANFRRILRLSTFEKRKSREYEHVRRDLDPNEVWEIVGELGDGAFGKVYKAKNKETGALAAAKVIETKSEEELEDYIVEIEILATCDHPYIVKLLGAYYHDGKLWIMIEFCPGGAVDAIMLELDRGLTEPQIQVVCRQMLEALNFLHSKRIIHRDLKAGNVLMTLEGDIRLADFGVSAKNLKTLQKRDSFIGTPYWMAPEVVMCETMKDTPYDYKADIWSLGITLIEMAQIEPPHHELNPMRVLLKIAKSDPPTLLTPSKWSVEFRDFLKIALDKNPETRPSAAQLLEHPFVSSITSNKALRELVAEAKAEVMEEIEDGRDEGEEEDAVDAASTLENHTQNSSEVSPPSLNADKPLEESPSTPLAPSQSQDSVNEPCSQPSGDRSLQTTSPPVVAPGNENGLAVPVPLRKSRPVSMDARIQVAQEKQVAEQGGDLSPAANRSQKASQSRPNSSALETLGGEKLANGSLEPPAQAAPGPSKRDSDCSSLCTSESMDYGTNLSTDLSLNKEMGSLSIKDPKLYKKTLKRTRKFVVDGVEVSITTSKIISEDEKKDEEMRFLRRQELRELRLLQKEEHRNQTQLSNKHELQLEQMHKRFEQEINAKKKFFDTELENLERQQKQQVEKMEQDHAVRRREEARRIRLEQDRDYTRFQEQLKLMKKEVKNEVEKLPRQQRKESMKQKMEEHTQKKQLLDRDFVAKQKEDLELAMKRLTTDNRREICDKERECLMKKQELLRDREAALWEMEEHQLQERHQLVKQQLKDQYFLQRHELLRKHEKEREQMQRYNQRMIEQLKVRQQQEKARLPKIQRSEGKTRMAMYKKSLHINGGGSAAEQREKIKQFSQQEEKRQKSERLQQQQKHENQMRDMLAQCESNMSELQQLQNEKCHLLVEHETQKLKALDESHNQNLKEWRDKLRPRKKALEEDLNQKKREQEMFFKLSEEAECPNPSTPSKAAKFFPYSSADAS
Chain of Vascular endothelial growth factor receptor 3 (Homo sapiens) (P35916 whole entry): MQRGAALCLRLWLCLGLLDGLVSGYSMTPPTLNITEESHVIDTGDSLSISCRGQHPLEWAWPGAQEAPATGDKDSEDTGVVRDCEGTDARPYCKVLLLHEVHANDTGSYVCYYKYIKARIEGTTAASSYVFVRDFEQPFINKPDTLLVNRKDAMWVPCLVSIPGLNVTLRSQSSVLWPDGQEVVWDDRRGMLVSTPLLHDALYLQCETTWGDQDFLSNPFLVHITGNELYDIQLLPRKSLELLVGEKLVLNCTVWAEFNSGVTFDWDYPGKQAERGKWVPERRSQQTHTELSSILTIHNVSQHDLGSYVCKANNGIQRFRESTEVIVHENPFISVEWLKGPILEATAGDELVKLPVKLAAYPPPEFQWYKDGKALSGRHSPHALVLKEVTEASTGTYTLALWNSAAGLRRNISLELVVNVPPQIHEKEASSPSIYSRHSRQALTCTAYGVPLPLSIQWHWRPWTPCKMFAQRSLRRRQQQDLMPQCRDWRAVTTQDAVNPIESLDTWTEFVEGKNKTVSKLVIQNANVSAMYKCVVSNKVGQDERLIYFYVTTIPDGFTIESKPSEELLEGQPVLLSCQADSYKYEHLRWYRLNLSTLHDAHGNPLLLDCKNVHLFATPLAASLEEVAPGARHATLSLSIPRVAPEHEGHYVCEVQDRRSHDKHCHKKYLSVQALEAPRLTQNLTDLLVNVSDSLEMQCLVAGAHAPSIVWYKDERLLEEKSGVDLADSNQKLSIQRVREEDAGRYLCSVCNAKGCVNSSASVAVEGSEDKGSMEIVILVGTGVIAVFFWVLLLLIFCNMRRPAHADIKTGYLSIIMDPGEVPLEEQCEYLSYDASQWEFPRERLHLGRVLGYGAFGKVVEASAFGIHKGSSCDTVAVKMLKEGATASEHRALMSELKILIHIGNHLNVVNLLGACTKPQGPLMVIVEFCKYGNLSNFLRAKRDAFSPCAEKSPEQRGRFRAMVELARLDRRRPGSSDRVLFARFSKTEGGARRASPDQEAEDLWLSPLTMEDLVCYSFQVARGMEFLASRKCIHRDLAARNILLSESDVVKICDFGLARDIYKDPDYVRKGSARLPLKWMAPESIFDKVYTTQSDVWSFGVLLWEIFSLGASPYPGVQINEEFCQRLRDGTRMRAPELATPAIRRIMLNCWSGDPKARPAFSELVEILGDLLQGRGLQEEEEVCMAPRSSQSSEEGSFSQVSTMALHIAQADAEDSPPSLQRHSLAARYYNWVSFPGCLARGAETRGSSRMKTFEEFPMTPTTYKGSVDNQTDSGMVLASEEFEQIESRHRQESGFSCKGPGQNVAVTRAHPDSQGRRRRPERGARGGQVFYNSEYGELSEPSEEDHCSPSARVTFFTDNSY
Chain of Fibroblast growth factor receptor 1 (Homo sapiens), P11362 [V561M] (P11362 whole entry V561M, the tested form may be a part): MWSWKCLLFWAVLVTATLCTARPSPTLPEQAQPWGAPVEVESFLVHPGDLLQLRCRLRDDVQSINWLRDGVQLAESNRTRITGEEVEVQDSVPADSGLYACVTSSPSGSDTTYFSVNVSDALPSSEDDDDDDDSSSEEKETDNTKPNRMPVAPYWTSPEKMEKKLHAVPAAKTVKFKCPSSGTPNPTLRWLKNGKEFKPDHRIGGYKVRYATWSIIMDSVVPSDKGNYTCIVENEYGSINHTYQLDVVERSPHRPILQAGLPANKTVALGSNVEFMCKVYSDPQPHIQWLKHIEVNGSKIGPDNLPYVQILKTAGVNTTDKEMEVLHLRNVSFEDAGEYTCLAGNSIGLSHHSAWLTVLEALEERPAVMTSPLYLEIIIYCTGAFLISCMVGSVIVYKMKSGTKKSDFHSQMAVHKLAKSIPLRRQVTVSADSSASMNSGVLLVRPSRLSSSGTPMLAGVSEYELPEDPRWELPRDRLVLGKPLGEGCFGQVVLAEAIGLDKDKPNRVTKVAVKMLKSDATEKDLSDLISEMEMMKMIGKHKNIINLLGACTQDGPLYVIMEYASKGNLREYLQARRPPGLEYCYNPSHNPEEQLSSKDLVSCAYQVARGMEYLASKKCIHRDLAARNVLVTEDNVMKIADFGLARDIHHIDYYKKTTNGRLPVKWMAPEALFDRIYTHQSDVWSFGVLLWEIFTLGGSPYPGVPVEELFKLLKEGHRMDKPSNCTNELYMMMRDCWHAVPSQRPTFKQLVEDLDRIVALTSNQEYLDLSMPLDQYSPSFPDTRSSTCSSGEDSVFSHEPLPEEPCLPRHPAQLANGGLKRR

## C[C@@H](Oc1cc(-n2cnc3ccc(CN4CCN(C)CC4)cc32)sc1C(N)=O)c1ccccc1C(F)(F)F [GSK-461364]
SK-OV-3
  Emax: 345%
COLO 205 [1]
  Activity: Active
[2]
  inhibition: 86%
SCLC
  GI50: 17.4 nM
HT-29
  GI50: 8.1 nM
SW480
  GI50: 130 nM
HeLa
  GI50: 21.8 nM
COLO 205 [3]
  Emax: 616%
COLO 205 [4]
  Activity: Active
HN5
  GI50: 15.4 nM
A498
  Emax: 774%
T47D
  Emin: 205%
Panc 02.03 [5]
  GI50: 20.9 nM
[6]
  inhibition: 62%
BT-474
  Emax: 226%
OVCAR-4
  GI50: 24.2 nM
MDA-MB-231
  GI50: 9.15 nM
HL-60
  Emin: 15.3%
Panc 02.03 [7]
  Emax: 420%
HCC1954
  GI50: 14.1 nM
SK-MEL-2
  Emin: 71.3%
RKO
  Emin: 218%
[8]
  inhibition: 87%
OVCAR-8
  GI50: 20.4 nM
MIA PaCa-2
  Emin: 100.2%
HCC1937
  Emax: 240%
OVCAR-3
  GI50: 12.9 nM
NCI-H1155
  Emax: 645%
SK-BR-3 [9]
  GI50: 15.8 nM
COLO 205 [10]
  GI50: 14.2 nM
ZR-75-1
  Activity: Active
T-24
  GI50: 42.3 nM
Hep 3B2
  Emin: 132.1%
BXPC-3
  Emin: 103.3%
PANC-08-13 [11]
  Emax: 256%
A549
  Activity: Active
LNCaP
  GI50: 15.3 nM
MCF7
  Emin: 125.4%
PANC-08-13 [12]
  GI50: 18.9 nM
MDA-MB-453
  GI50: 13.4 nM
SK-BR-3 [13]
  Emax: 300%
